Measured values: patent US10076491B2, “Vaccine composition” (NITTO DENKO CORPORATION, priority 2013, dated 2018)

Test system: IFN-γ-producing cells (spleen cells)
Assay: Mouse immunization test with cream formulation for transdermal administration, ELISPOT method (IFN-γ)
Type: in vivo
Conditions: FIG. 1 / Table 2, combination with Th1 adjuvant imiquimod (IMQ), OVAp
Procedure: Spleen cells (3×10^6 cells/well) and an antigen peptide (100 μM) or an antigen protein (100 μg/mL) together with the culturing medium were placed into a well of an ELISPOT plate on which an anti-mouse IFN-γ antibody had been immobilized. The plate was cultured for 20 hours under the condition of 37° C. and 5% CO2. The number of the spots representing IFN-γ-producing cells (spot number/3×10^6 cells) was evaluated by the ELISPOT method.
Mouse Immunization Test with Cream Formulation for Transdermal Administration
Mouse immunization test was performed with the cream formulations prepared as described above using a model animal for immunological evaluation. The immunity induction level was evaluated by ELISPOT method. Specifically, the hair of the back of the mouse was cut, and the mouse was kept until it recovered from the skin damage due to the hair cutting. After that, 4 mg of each cream formulation was applied to the skin of the back of the mouse for 24 hours, and then removed. After 6 days, the level of the cellular immunity induction specific for the antigen was evaluated. Six days after the administration, the spleen of the mouse was removed to prepare a suspension of spleen cells. […] The number of the spot representing IFN-γ producing cells (spot number/3×10^6 cells) was evaluated by ELISPOT method.

| SMILES | effect of combination of Th2 cell differentiation inhibitor and Th1 adjuvant (ELISPOT) |
| --- | --- |
| COc1ccc2cc3[n+](cc2c1OC)CCc1cc2c(cc1-3)OCO2 [berberine] | synergistic effect |
| CC(C(=O)O)c1ccc(CC2CCCC2=O)cc1 (centres unmarked) [loxoprofen] | synergistic effect |
